Assay results as given in US10517889B2, “Modulators of SMAD7 expression” (Ionis Pharmaceuticals, Inc., priority 2017, dated 2019).

Columns and labels:
[1] = Organ weights after oral gavage in beagle dogs (Example 12); settings: 200 mg by oral gavage for 4 weeks, day 30, in words
Method: (§1) Groups of 24-25 week old male beagle dogs were administered 200 mg Ionis human SMAD7 oligonucleotide by oral gavage once a week for 4 weeks. There were 4 animals per group. A control group of dogs received oral administration of distilled water. Dogs were sacrificed on day 30 approximately 48 hours after the final dose and organs and plasma were harvested for further analysis.

[2] = Plasma chemistry markers after oral gavage in beagle dogs (Example 12); settings: 200 mg by oral gavage for 4 weeks, day 30, in words
Method: The study was conducted to evaluate the tolerability and pharmacodynamics of select human SMAD7 antisense oligonucleotides in beagle dogs following 4 weeks of treatment. The dogs were administered oligonucleotides by oral gavage.
as §1
To evaluate the effect of Ionis SMAD7 oligonucleotides on liver and kidney function, approximately 1.5 mL of blood samples were collected and put into tubes without anticoagulant for serum separation. The tubes were kept at room temperature for a minimum of 90 min and then centrifuged (approximately 3,000 rpm for 10 min) to obtain serum. Plasma levels of transaminases, albumin, bilirubin, and BUN were measured using an automated clinical chemistry analyzer (Toshiba 200FR Neo chemistry analyzer, Toshiba Co., Japan).

[3] = Plasma chemistry markers after subcutaneous administration in beagle dogs (Example 8); settings: 30 mg/kg subcutaneously, day 31, in words
Method: Groups of 24-25 week old male beagle dogs were injected subcutaneously with 30 mg/kg ION Ionis oligonucleotide. There were 4 animals per group. Dogs were injected every two days for the first week (day 1, 3, and 5) and once weekly thereafter (days 8, 15, 22, and 29). A control group of dogs received subcutaneous injections of PBS. Dogs were sacrificed on day 31 approximately 48 hours after the final dose and organs and plasma were harvested for further analysis.
To evaluate the effect of Ionis SMAD7 oligonucleotides on liver and kidney function, plasma levels of transaminases, albumin, creatine and BUN were measured using an automated clinical chemistry analyzer (Toshiba 200FR Neo chemistry analyzer, Toshiba Co., Japan).

[4] = Tissue and organ histopathology after oral gavage in CD-1 mice (Example 7); assay type: in vivo; settings: daily oral gavage 500 mg/kg for one month, in words
Method: Groups of 7-8 week old male CD-1 mice were given an oral gavage dose once daily for 4 weeks of 500 mg/kg of Ionis SMAD7 oligonucleotides. Each group contained 8 mice. One group of male CD-1 mice was administered saline by oral gavage daily.
Histopathology evaluations were performed on the mice treated with Ionis oligonucleotides to evaluate any tissue damage in the liver (with gallbladder), kidneys, heart, spleen, thymus, mesenteric lymph nodes, and different parts of the GI tract, including duodenum, ileum, and colon (proximal and distal). Tissues were collected and fixed in 10% neutral-buffered formalin, embedded in paraffin, sectioned, and stained with hematoxylin and eosin. All the tissues were histologically unremarkable in all mice.

[5] = system: murine Smad7 mRNA; test: Dose-dependent inhibition of murine Smad7 mRNA in bEND cells, electroporation (Example 5, Study 2); assay type: cell-based, mouse; settings: in words
Method: Many of the Ionis designed oligonucleotides as well as ION 736697/Mongersen are complementary to mouse Smad7 mRNA. […] After a treatment period of approximately 16 hours, the cells were washed and lyzed and RNA on 384-well Pall plates with DNase I treatment. Smad7 mRNA levels were measured by quantitative real-time PCR. Primer probe set RTS1114 (forward sequence […], designated herein as SEQ ID NO: 8; reverse sequence […], designated herein as SEQ ID NO: 9; probe sequence […], designated herein as SEQ ID NO: 10) was used to measure murine Smad7 mRNA levels. Smad7 mRNA levels were adjusted according to total RNA content, as measured by RIBOGREEN®. Results are presented as percent inhibition of Smad7 mRNA expression, relative to untreated control cells.
Many of the Ionis oligonucleotides had greater potency than ION 736697/Mongersen.

[6] = system: human SMAD7 mRNA; test: Dose-dependent inhibition of human SMAD7 mRNA expression in A431 cells, oligonucleotide added without transfection (Example 5, Study 1); assay type: cell-based; settings: SMAD7 mRNA, in words
Method: The newly designed compounds disclosed herein are cEt-modified antisense oligonucleotides. […] The studies described below show a comparison of select cEt-modified gapmers and ION0736697/Mongersen.
A431 cells were plated in collagen I-coated 96-well plates in DMEM with […]. Immediately after plating, 0.08 μM, 0.25 μM, 0.74 μM, 2.22 μM, 6.67 μM, or 20.00 μM concentrations of antisense oligonucleotide were added. The plates were shaken briefly before incubating at 37° C. and 10% CO2. After a treatment period of approximately 48 hours, the cells were washed and lyzed and RNA on 384-well Pall plates with DNase I treatment. SMAD7 mRNA levels were measured by quantitative real-time PCR. Primer probe set RTS5062 was used to measure human SMAD7 mRNA levels. SMAD7 mRNA levels were adjusted according to total RNA content, as measured by RIBOGREEN®. Results are presented as percent inhibition of SMAD7 mRNA expression, relative to untreated control cells.
All Ionis oligonucleotides had greater potency than ION 736697/Mongersen.

[7] = system: mouse Smad7 mRNA; test: Murine Smad7 mRNA expression after subcutaneous administration in BALB/c mice (Example 10); assay type: in vivo; settings: 50 mg/kg subcutaneous once a week for 4 weeks, 24 hours after last dose
Method: The objective of this study was to evaluate the efficacy of Ionis SMAD7 antisense oligonucleotides compared to ION 736697/Mongersen in BALB/c mice following 4 weeks of treatment. Both ION 830025 and ION 798781 are cross-reactive with mouse Smad7 mRNA.
Groups of BALB/c mice were subcutaneously administered 50 mg/kg of Ionis SMAD7 oligonucleotides once a week for 4 weeks. Each group contained 4 mice. One group of mice was administered PBS once a week for 4 weeks. […]

[8] = Pharmacokinetics: oligonucleotide concentration in tissues after oral gavage in beagle dogs (Example 12); assay type: in vivo; settings: for Tissue accumulation of oligonucleotide: 200 mg by oral gavage for 4 weeks, in words
Method: There were 4 animals per group.
Canine tissue exposure following oral administration of the Ionis SMAD7 oligonucleotides was measured in various organs and intestinal tissues.
Plasma concentrations of Ionis oligonucleotides were also measured on Day 28 at various time points.

[9] = system: human peripheral blood mononuclear cells (PBMCs); test: Human PBMC activation assay, cytokine levels (IL-10, IL-6, MCP-1, TNF-α) in supernatant after 24 hours (Example 9); settings: human PBMCs, 24 hours, in words
Method: Ionis SMAD7 oligonucleotides were tested in an in vitro assay for potential immunostimulatory properties in an in vitro human peripheral blood mononuclear cell (PBMC) activation assay.
Blood samples were collected from healthy human volunteers in heparinized vials and mixed well. Human PBMCs were isolated by gradient centrifugation using Ficoll-Histopaque. The cells were washed, counted and resuspended in medium. The PBMCs were plated in a 24-well culture plate and various concentrations of oligonucleotides were added to the media. An oligonucleotide historically known to promote an inflammatory response was used as a positive control, whereas an oligonucleotide known not to be pro-inflammatory was used as a negative control. […] The supernatants were collected after 24 hours and analyzed for cytokine levels using MSD platform.

[10] = system: mouse Smad7 mRNA; test: Pharmacology: mouse Smad7 mRNA expression in liver, kidney, duodenum, ileum and colon after subcutaneous administration in CD-1 mice (Example 6); assay type: in vivo; settings: 50 mg/kg subcutaneously twice a week for 7 weeks, in words
Method: Groups of 8-9 week old male CD-1 mice were injected subcutaneously twice a week for 7 weeks with 50 mg/kg of Ionis oligonucleotides (100 mg/kg/week dose). Each group contained 4 mice. One group of male CD-1 mice was injected subcutaneously twice a week for 7 weeks with PBS. Plasma was collected for analysis on day 28.
The pharmacological activity of the Ionis oligonucleotides in mice was assessed by measuring mouse Smad7 mRNA expression in liver, kidney, duodenum, ileum, and colon at necropsy.
Tissue samples from all mice were analyzed for Smad7 mRNA expression using the primer probe set HTS7555 (forward sequence […], designated SEQ ID NO: 2737; reverse sequence […], designated SEQ ID NO: 2738; probe sequence […], designated SEQ ID NO: 2739), which was normalized to mRNA levels of the housekeeping gene, GAPDH. One-way ANOVA with Dunnet's comparison test was used for statistical analysis.

[11] = system: mouse Smad7 mRNA; test: Murine Smad7 mRNA expression after oral administration in BALB/c mice (Example 11); assay type: in vivo; settings: orally 500 mg/kg/day for 3 weeks, in words
Method: The objective of this study was to evaluate the efficacy of Ionis SMAD7 antisense oligonucleotides in BALB/c mice following daily oral administration. The Ionis oligonucleotides are cross-reactive with mouse Smad7 mRNA.
Groups of BALB/c mice were orally administered 500 mg/kg/day for 3 weeks of human Smad7 oligonucleotides, ION 790615, ION 798781, or ION 830025, or mouse Smad7 oligonucleotide, ION 772797 (a 3-10-3 cEt gapmer with phosphorothioate backbone and sequence […]; designated herein as SEQ ID NO: 2743). One group of mice was orally administered PBS daily for 3 weeks. Each group contained 4 mice.
To evaluate the efficacy of the oligonucleotides, murine Smad7 mRNA expression in the liver, kidneys, duodenum, ileum, and colon was measured using primer probe set RTS1114.

For “ION 798781 (CGTAAGATTCACAGCA; 3-10-3 cEt gapmer, further chemistry not given here)”, the “Tolerability (organ weights)” value [1] was “very well tolerated”, the “Tolerability (plasma chemistry markers)” value [2] was “very well tolerated” and the “Tolerability (plasma chemistry markers)” value [3] was “well tolerated”. The “Histopathology: oligonucleotide-related tissue alterations” value [4] was “not associated with any antisense oligonucleotide-related tissue alterations”, the “Potency compared with ION 736697/Mongersen” value [5] was “more potent than ION 736697/Mongersen” and the “Potency/efficacy compared with ION 736697/Mongersen” value [6] was “more efficacious than ION 736697/Mongersen”. The “Mouse Smad7 mRNA expression (% inhibition), Colon” value [7] was 41 % inhibition, the “Mouse Smad7 mRNA expression (% inhibition), Duodenum” value [7] was 27 % inhibition and the “Mouse Smad7 mRNA expression (% inhibition), Ileum” value [7] was 22 % inhibition. For the same substance, the “Mouse Smad7 mRNA expression (% inhibition), Kidney” value [7] was 11 % inhibition, the “Mouse Smad7 mRNA expression (% inhibition), Liver” value [7] was 36 % inhibition and the “Tissue accumulation of oligonucleotide” value [8] was “higher accumulation in the liver and kidneys”. The “Oligonucleotide concentration in tissues, Duodenum” value ([8]; 200 mg oral gavage for 4 weeks) was 0.6 µg/g, the “Oligonucleotide concentration in tissues, Ileum” value ([8]; 200 mg oral gavage for 4 weeks) was 0.5 µg/g and the “Oligonucleotide concentration in tissues, Kidney” value ([8]; 200 mg oral gavage for 4 weeks) was 108.1 µg/g. The “Oligonucleotide concentration in tissues, Liver” value ([8]; 200 mg oral gavage for 4 weeks) was 12.9 µg/g and the “Oligonucleotide concentration in tissues, Proximal colon” value ([8]; 200 mg oral gavage for 4 weeks) was 0.1 µg/g.
In the case of “ION 830025 (antisense TTTGTAAATCGAAAGC; 3-10-3 cEt gapmer, phosphorothioate, further chemistry not given here) [sodium salt]”, the “Tolerability (organ weights)” value [1] is reported as “very well tolerated”, the “Tolerability (plasma chemistry markers)” value [2] is reported as “very well tolerated” and the “Tolerability (plasma chemistry markers)” value [3] is reported as “well tolerated”. The “Histopathology: oligonucleotide-related tissue alterations” value [4] was “not associated with any antisense oligonucleotide-related tissue alterations”, the “Potency compared with ION 736697/Mongersen” value [5] was “more potent than ION 736697/Mongersen” and the “Potency/efficacy compared with ION 736697/Mongersen” value [6] was “more efficacious than ION 736697/Mongersen”. For the same substance, the “Cytokine and chemokine production (immunostimulatory profile)” value [9] was “minimal cytokine and chemokine production which was similar or less than the negative control ASO”, the “Smad7 mRNA reduction in tissues” value [10] was “significant Smad7 mRNA reduction in various tissues” and the “Mouse Smad7 mRNA expression (% inhibition), Colon” value [7] was 32 % inhibition. For the same substance, the “Mouse Smad7 mRNA expression (% inhibition), Duodenum” value [7] was 26 % inhibition, the “Mouse Smad7 mRNA expression (% inhibition), Ileum” value [7] was 14 % inhibition and the “Mouse Smad7 mRNA expression (% inhibition), Kidney” value [7] was 5 % inhibition. For the same substance, the “Mouse Smad7 mRNA expression (% inhibition), Liver” value [7] was 46 % inhibition, the “Tissue accumulation of oligonucleotide” value [8] was “Distal colon accumulation was detected” and the “Oligonucleotide concentration in tissues, Distal colon” value ([8]; 200 mg oral gavage for 4 weeks, distal colon) was 0.1 µg/g. The “Oligonucleotide concentration in tissues, Duodenum” value ([8]; 200 mg oral gavage for 4 weeks) was 0.8 µg/g, the “Oligonucleotide concentration in tissues, Ileum” value ([8]; 200 mg oral gavage for 4 weeks) was 0.3 µg/g and the “Oligonucleotide concentration in tissues, Kidney” value ([8]; 200 mg oral gavage for 4 weeks) was 48.1 µg/g. For the same substance, the “Oligonucleotide concentration in tissues, Liver” value ([8]; 200 mg oral gavage for 4 weeks) was 7.8 µg/g, the “Oligonucleotide concentration in tissues, Proximal colon” value ([8]; 200 mg oral gavage for 4 weeks) was 0.2 µg/g and the “Efficacy in reducing Smad7 mRNA expression” value [11] was “efficacious in reducing Smad7 mRNA expression”.
